The subject of one data set is Mice (male, C57BL/6). Nature of the data set: Formalin pain assay in mice. The conditions noted are these: 2.5% formalin in left hind paw, time spent flinching/licking/biting. Format: in vivo, mouse. The protocol: Mice (male, C57BL/6) were placed singly in a Perspex chamber for approximately 30 min on three successive days to acclimate and thereby reduce stress-induced behaviors. On the fourth day, the experimental animals received a 25 μl injection of 2.5% formalin beneath the left plantar skin using a 29-gauge syringe. […] The total time spent on flinches/licking/biting of the hind paw was recorded by visual observation for every 5 min period/interval for total observation duration of 60 min in two phases, the early phase (0-5 min) and the late phase (15-40 min). Observers were blinded to the treatment group allocation.
For test compounds, % protection from 0-60 min was used to assess activity. Scoring for the test compounds was as follows: “A” represents a % protection of 81 to 100%, “B” represents a % protection of 61 to 80%, “C” represents a % protection of 31 to 60% and “D” represents a % protection of 0 to 30%.

Data set [1] concerns rat dorsal root ganglion (DRG) cells. Nature of the data set: Rat dorsal root ganglion (DRG) excitability response to electrical field stimulation. Format: cell-based. The conditions noted are these: adult rat DRG cells, Ca5 Ca2+ indicator, six concentrations, highest typically 30 μM, read-out: Scoring: EC50, modulation of rat DRG excitability. The protocol: Rat Dorsal Root Ganglion Excitability Response of Representative Compounds Dorsal root ganglions (DRGs) were dissected from adult rats. The tissue was processed, and cells were seeded into cell culture plates (48 center wells of one quadrant in 384-well plates) and cultured for 2 days prior to Electrical field stimulation (EFS). To visualize the neuronal excitability response, intracellular Ca^+2 transients were monitored using the Ca^+2 indicator, Ca5. Ca5 was added to the cultures 1 h prior to EFS. Representative compounds of the invention (i.e., test compounds) and reference compound, tetracaine, were added in concentration-response format encompassing six concentrations, performed in duplicate. The highest concentration tested was typically 30 μM with 1 in 3 dilutions generating the subsequent concentrations.
Effects on DRG excitability by the test compounds and standard were evaluated using four EFS protocols as disclosed in Table 2.
Experimental results were performed using two seperate sets of plates using separate test compound and standard dilutions, to provide n=2. In the first set of experiments, compounds were added 24 h prior to EFS to increase the possibility to also detect more long-term compound effects. In the second set of experiments the compounds were added directly prior to EFS. Excitability response to EFS was analyzed as the average fluorescence ratio (peak/baseline) change per well. All plates were evaluated using high content imaging equipment post-EFS, imaging the Ca5 background staining to detect any possibile compound-related toxic effects.
Average response by the reference compound, tetracaine, was 4.05 μM.

A short description of data set [2]: Metabolism by human liver microsomes. Format: in vitro ADME. The conditions noted are these: human liver microsomes 1 mg/mL protein, 10 μM, in the presence of NADPH, LC-MS/MS. The protocol: Representative compounds of the invention (i.e., test compounds) and the positive control, 7-ethoxycoumarin, were prepared as stock solutions at 10 mM in DMSO and eventually diluted to 10 μM in the test plate, with an appropriate amount of acetonitrile and tris HCl buffer. Final DMSO and acetonitrile concentrations were […] and 0.5% respectively. NADPH was prepared in tris HCl buffer to a stock of 10 mM. A frozen aliquot of liver microsomes was retrieved from the freezer (−80° C.) and thawed by placing the tube on wet ice. After thawing, the tubes were gently mixed and the required amount, transferred to tris HCl buffer. Test compounds or positive control were pre-incubated, separately, for 10 minutes, with liver microsomes (1 mg/mL protein), at 37° C., in 100 mM Tris HCl at pH 7.5. After preincubation the reaction was started by adding 1 mM NADPH (pre-equilibrated to 30° C.) and the reaction allowed to proceed for 60 minutes. At 60 minutes, a 50 μL aliquot was removed and quenched with 200 uL of acetonitrile containing a mixture of internal standards (Tolbutamide (500 ng/mL) and Telmistartan (500 ng/mL)) and vortexed then centrifuged at 4000 rpm for 10 minutes (Eppendorf 5810R). The supernatant was transferred to a 96 well plate for LC-MS/MS analysis.
An LC-MS/MS method was devised for the test compounds and the control, using a AB Sciex API 4000 system coupled to a NEXAR™ UHPLC (Shimadzu) system. Analytes were separated on a Phenomenex Kinetex C18 column (50×2.1 mm, 5 μm) using a gradient that was appropriate for each compound, at a flow rate of 1 ml/minute, utilizing a mobile phase of 0.1% formic acid in MILLI-Q™ water (A) and 0.1% formic acid in acetonitrile (B). The MS instrument was operated in positive mode (ESI+)/negative (ESI−). The multiple reaction monitoring (MRM) transition for test and control compounds was used for the LC-MS/MS analysis. MRM transitions for control compound 7-ethoxycoumarinm were Quadropole 1: 191.0, Quadropole 3:163.0, dwell time: 75 msec, using curtain gas settings of 5 V, ion-spray voltage of 5500 V, temperature of 50° C. and gas settings for nebulizer and auxiliary set to 30 and 40 psi, respectively. The interface heater was kept on. Entrance potential and collision cell exit potential were varied to tune for a specific compound.
Using a suitable LC-MS/MS method, the percentage of drug remaining at 60 minutes ([…]) was assessed by comparing the average analyte to internal standard area ratio at 60 minutes to the average analyte to internal standard area ratio at 0 time control, as a percentage, from a 5 to 10 μL sample injection.
According to the above assay, the test compounds listed in Table 7 below were active in the Human liver microsome assay at 10 μM and the % of drug remaining after 60 minutes (PDR60), in the presence of NADPH, was assessed by LC-MS/MS. Average PDR60 for the standard compound, 7-ethoxycoumarin was <=65% in the presence of NADPH. Scoring for the test compounds, in the presence of NADPH, was as follows: “A” represents a PDR60 of 81 to 100%, “B” represents a PDR60 of 61 to 80%, “C” represents a PDR60 of 31 to 60% and “D” represents a PDR60 of 0 to 30%.

Data set [3] deals with T cells isolated from mouse spleens. The data set can be described thus: T cell proliferation (anti-CD3/anti-CD28 dynabeads, CCK-8 assay). The conditions noted are these: 72 hours, read-out: Scoring: IC50, cell proliferation. The data set is classed as cell-based. The protocol:
weeks old. Cells were harvested under sterile conditions by forcing each spleen though a cell filter (pore size 100 μm diameter). A homogenous cell suspension was obtained by washing the cells in fresh medium and passing cells through a smaller cell filter (pore size 70 μm).
Untouched T cells were isolated using the Pan T cell isolation kit (Miltenyi Biotech). Briefly, cells were counted and incubated with the required volume of antibody cocktail for 5 minutes at 4° C. before addition of microbeads and incubation for 10 minutes at 4° C. Labeled cells were retained in a magnetic column while unlabeled cells (T cells) passed through the column and were retained for use in the assay.
Cell viability was assessed by Trypan Blue exclusion and found to be >99% prior to transfer to plates. Isolated T cells were seeded out in 96 well plates at a density of 50,000 cells per well and allowed to incubate for 60 minutes in a humidified cell culture (37° C., 5% CO2) incubator prior to compound treatment. The media used for this assay (TexMACS, Miltenyi Biotech) was previously optimized for proliferation of T cells in serum free conditions.
Representative compounds of the invention (i.e., test compounds) were prepared as 30 mM stocks in 100% DMSO. Test compounds were initially diluted in media to yield 3 mM stocks before an additional 1:10 dilution in media was performed to yield working stocks of 300 μM (1% DMSO). Subsequent dilutions were performed in media (supplemented with 1% DMSO). When added to the assay plates (1:10 dilution), these yielded final concentrations in the assay plates of in 0.1% DMSO. The reference compound, Cyclosporin A, was prepared in an identical manner as above.
Unstimulated and Stimulated Control wells received an identical volume of TexMACS media/1% DMSO at this time, resulting in a final concentration of 0.1% DMSO across the plate. […] After removal of 60% of the supernatant for subsequent ELISA, cell proliferation was assessed using the CCK-8 assay. […]

Take `C[C@@H]1CC[C@@]2(OC1)O[C@H]1C[C@H]3[C@H](CN)[C@@H]([C@@]4(C)Cc5cn[nH]c5C[C@@H]4CO)CC[C@]3(C)[C@H]1[C@@H]2C` [Ia-2, ((5R,6S)-5-((2R,3S,3aR,3bS,5′R,6S,7R,7aS,8aS)-7-(aminomethyl)-3,3b,5′-trimethyltetradecahydrospiro[indeno[2,1-b]furan-2,2′-pyran]-6-yl)-5-methyl-4,5,6,7-tetrahydro-1H-indazol-6-yl)methanol]: the “Scoring: % protection from 0-60 min” value with Mice (male, C57BL/6) was “D (“D” represents a % protection of 0 to 30%)”. In data set [1], the half-maximal effective concentration (EC50) lay in the range of 6 to 15 µM. Moreover, the “Scoring: % of drug remaining after 60 minutes (PDR60)” value in data set [2] is reported as “A (“A” represents a PDR60 of 81 to 100%)”. The IC50 in data set [3] lay in the range of 1.5 to 15 µM.
Consider `CC[C@H](CC(O)[C@@H](C)[C@H]1CC[C@H]2[C@H](CO)[C@@H]([C@@]3(C)Cc4cn[nH]c4C[C@@H]3CO)CC[C@]12C)C(C)C` (stereo partly drawn) [Ia-9, (2S,5R)-5-ethyl-2-((1R,3aS,4S,5S,7aS)-4-(hydroxymethyl)-5-((5R,6S)-6-(hydroxymethyl)-5-methyl-4,5,6,7-tetrahydro-1H-indazol-5-yl)-7a-methyloctahydro-1H-inden-1-yl)-6-methylheptan-3-ol], for which, in data set [3], the IC50 fell in the range of 1.5 to 15 µM.
Consider `C[C@@H]1CC[C@@]2(OC1)O[C@H]1C[C@H]3[C@H](CO)[C@@H]([C@@]4(C)Cc5cn[nH]c5C[C@@H]4CO)CC[C@]3(C)[C@H]1[C@@H]2C` [Ia-1, ((5R,6S)-5-((2R,3S,3aR,3bS,5′R,6S,7R,7aS,8aS)-7-(hydroxymethyl)-3,3b,5′-trimethyltetradecahydrospiro[indeno[2,1-b]furan-2,2′-pyran]-6-yl)-5-methyl-4,5,6,7-tetrahydro-1H-indazol-6-yl)methanol], for which the IC50 in data set [3] lay in the range of 1.5 to 15 µM.
On to `C[C@]1([C@H]2CC[C@]3(C)C(O)CC[C@H]3[C@@H]2CO)Cc2cn[nH]c2C[C@@H]1CO` (some centres unmarked) [Ia-10a and Ia-10b], for which the “Scoring: % protection from 0-60 min” value in the data set on Mice (male, C57BL/6) was “C (“C” represents a % protection of 31 to 60%)”. Moreover, in data set [2], the “Scoring: % of drug remaining after 60 minutes (PDR60)” value is listed as “C (“C” represents a PDR60 of 31 to 60%)”.

For the origin of these results see patent publication US11773108B2, “Indene derivatives useful in treating pain and inflammation” (TARO PHARMACEUTICALS INC., priority 2018, dated 2023).
